Values of other authors in patent US20040258838A1, “Method for preserving wood materials using precipitated copper compounds” (priority 2003, published 2004).

Test system: fish
Details: essentially 1 milligram per liter

For `[Cu]` [copper], the “level at which copper is extremely toxic to fish” value is given as “below 1 part per million”.
